Results taken from ChEMBL document CHEMBL1201862, “PubChem BioAssay data set” (2004).
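These data come from cells grown in 96-well plates and exposed to compound for 48 hours at five concentrations. GI50 marks 50% less growth.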 The source made the active and inactive calls. Rule as the data show it: active = GI50 up to about 1.1 µM and inactive = higher.

Key:
Assay in all cases: NCI anticancer screen, dose series, 48 h
A498 = system: A498
A549 = system: A549
ACHN = system: ACHN
CCRF-CEM = system: CCRF-CEM
COLO 205 = system: COLO 205
DU-145 = system: DU-145
HCC 2998 = system: HCC 2998
HCT-116 = system: HCT-116
HCT-15 = system: HCT-15
HOP-92 = system: HOP-92
HT-29 = system: HT-29
Hs-578T = system: Hs-578T
K562 = system: K562
KM12 = system: KM12
LOX IMVI = system: LOX IMVI
M14 = system: M14
MCF7 = system: MCF7
MDA-MB-231 = system: MDA-MB-231
MDA-MB-435 = system: MDA-MB-435
MDA-N = system: MDA-N
MOLT-4 = system: MOLT-4
NCI-H226 = system: NCI-H226
NCI-H23 = system: NCI-H23
NCI-H460 = system: NCI-H460
NCI-H522 = system: NCI-H522
NCI/ADR-RES = system: NCI/ADR-RES
OVCAR-3 = system: OVCAR-3
OVCAR-4 = system: OVCAR-4
OVCAR-8 = system: OVCAR-8
PC-3 = system: PC-3
RXF 393 = system: RXF 393
SF-268 = system: SF-268
SF-295 = system: SF-295
SK-MEL-28 = system: SK-MEL-28
SK-MEL-5 = system: SK-MEL-5
SK-OV-3 = system: SK-OV-3
SN12C = system: SN12C
SNB-19 = system: SNB-19
SNB-75 = system: SNB-75
SR = system: SR
SW-620 = system: SW-620
T47D = system: T47D
TK-10 = system: TK-10
U-251 = system: U-251
UACC-257 = system: UACC-257
UO-31 = system: UO-31
CAKI-1 = system: CAKI-1
HL-60 = system: HL-60
HOP-62 = system: HOP-62
IGROV-1 = system: IGROV-1
OVCAR-5 = system: OVCAR-5
RPMI-8226 = system: RPMI-8226
SK-MEL-2 = system: SK-MEL-2
786-0 = system: 786-0
EKVX = system: EKVX
Malme-3M = system: Malme-3M
SF-539 = system: SF-539
UACC-62 = system: UACC-62

Measured: GI50

CCCCCCCCCCCC1=NCCN1
active: A498 0.557 µM
inactive: A549 90.6 µM | ACHN > 100 µM | CCRF-CEM 22.9 µM | COLO 205 19.4 µM | DU-145 74.1 µM | HCC 2998 19.5 µM | HCT-116 56.6 µM | HOP-92 94 µM | HT-29 > 100 µM | Hs-578T 83.9 µM | K562 39.6 µM | KM12 63.8 µM | LOX IMVI 3.75 µM | M14 > 100 µM | MCF7 38.9 µM | MDA-MB-231 23.8 µM | MDA-MB-435 > 100 µM | MDA-N > 100 µM | MOLT-4 17.9 µM | NCI-H226 > 100 µM | NCI-H23 93.8 µM | NCI-H460 30.1 µM | NCI-H522 26.5 µM | NCI/ADR-RES > 100 µM | OVCAR-3 95.3 µM | OVCAR-4 14.8 µM | OVCAR-8 > 100 µM | PC-3 19.4 µM | RXF 393 > 100 µM | SF-268 > 100 µM | SF-295 87.7 µM | SK-MEL-28 > 100 µM | SK-MEL-5 38.6 µM | SK-OV-3 > 100 µM | SN12C 77.6 µM | SNB-19 > 100 µM | SNB-75 32 µM | SR 19.9 µM | SW-620 34.7 µM | T47D 73.3 µM | TK-10 > 100 µM | U-251 49.9 µM | UACC-257 > 100 µM | UO-31 32.1 µM
15.1 µM: HCT-15

CCP(=O)(CC)C(Cl)(Cl)C(O)C(C)(C)C (stereo unspecified)
inactive: A498 > 100 µM | A549 > 100 µM | ACHN > 100 µM | CAKI-1 > 100 µM | CCRF-CEM > 100 µM | COLO 205 > 100 µM | DU-145 > 100 µM | HCC 2998 > 100 µM | HCT-116 > 100 µM | HL-60 > 10 µM | HOP-62 > 100 µM | HOP-92 > 100 µM | HT-29 > 100 µM | Hs-578T > 100 µM | IGROV-1 > 100 µM | K562 > 100 µM | LOX IMVI > 100 µM | M14 > 100 µM | MCF7 > 100 µM | MDA-MB-231 > 100 µM | MDA-MB-435 > 100 µM | MDA-N > 100 µM | MOLT-4 > 100 µM | NCI-H226 > 100 µM | NCI-H23 > 100 µM | NCI-H460 > 100 µM | NCI-H522 > 100 µM | NCI/ADR-RES > 100 µM | OVCAR-3 > 100 µM | OVCAR-4 > 100 µM | OVCAR-5 > 100 µM | OVCAR-8 > 100 µM | PC-3 > 100 µM | RPMI-8226 > 100 µM | SF-295 > 100 µM | SK-MEL-28 > 100 µM | SK-MEL-2 > 100 µM | SK-MEL-5 > 100 µM | SK-OV-3 > 100 µM | SN12C > 100 µM | SNB-19 > 100 µM | SNB-75 > 100 µM | SR > 100 µM | SW-620 > 100 µM | T47D > 100 µM | TK-10 > 100 µM | U-251 > 100 µM | UACC-257 > 100 µM | UO-31 > 100 µM
> 100 µM: HCT-15

O=C(O)c1cc2ccccc2c(/N=N\c2cc(C(F)(F)F)ccc2Cl)c1O
inactive: 786-0 56.1 µM | A549 27.9 µM | ACHN 46.5 µM | CAKI-1 94.8 µM | CCRF-CEM 33.6 µM | COLO 205 39.7 µM | DU-145 74.1 µM | EKVX 70 µM | HCC 2998 > 100 µM | HCT-116 53.8 µM | HL-60 21.8 µM | HOP-62 38.1 µM | HOP-92 53.8 µM | HT-29 77.6 µM | Hs-578T 37.6 µM | IGROV-1 95.9 µM | K562 27 µM | KM12 23.8 µM | M14 > 100 µM | MCF7 > 100 µM | MDA-MB-231 18.3 µM | MDA-MB-435 > 100 µM | MDA-N > 100 µM | MOLT-4 27.4 µM | Malme-3M 37.4 µM | NCI-H226 > 100 µM | NCI-H23 56.5 µM | NCI-H460 38.5 µM | NCI-H522 > 100 µM | NCI/ADR-RES 76.2 µM | OVCAR-3 22.5 µM | OVCAR-4 86.9 µM | OVCAR-5 > 100 µM | OVCAR-8 60.8 µM | PC-3 48.6 µM | RPMI-8226 17.8 µM | RXF 393 35.2 µM | SF-268 > 100 µM | SF-295 47.6 µM | SF-539 99.3 µM | SK-MEL-28 83 µM | SK-MEL-2 25.4 µM | SK-MEL-5 25.5 µM | SK-OV-3 > 100 µM | SN12C 44.9 µM | SNB-19 1.17 µM | SR 24.8 µM | SW-620 > 100 µM | T47D 48.8 µM | TK-10 > 100 µM | U-251 27.5 µM | UACC-257 67.6 µM | UO-31 33.4 µM
active: SNB-75 0.0169 µM
83.8 µM: HCT-15

Nc1ncc2c(n1)-c1ccccc1OC2N1CCCC1 (stereo unspecified)
inactive: 786-0 > 100 µM | A549 > 100 µM | ACHN > 100 µM | CAKI-1 > 100 µM | CCRF-CEM > 100 µM | COLO 205 > 100 µM | DU-145 > 100 µM | EKVX 41.5 µM | HCT-116 > 100 µM | HL-60 1.9 µM | HOP-62 > 100 µM | HOP-92 83.9 µM | HT-29 > 100 µM | Hs-578T > 100 µM | IGROV-1 80.7 µM | K562 > 100 µM | KM12 > 100 µM | LOX IMVI > 100 µM | M14 > 100 µM | MCF7 > 100 µM | MDA-MB-231 > 100 µM | MDA-MB-435 > 100 µM | MDA-N > 100 µM | MOLT-4 > 100 µM | Malme-3M > 100 µM | NCI-H226 > 100 µM | NCI-H23 > 100 µM | NCI-H460 > 100 µM | NCI-H522 > 100 µM | NCI/ADR-RES > 100 µM | OVCAR-3 > 100 µM | OVCAR-4 > 100 µM | OVCAR-5 > 100 µM | OVCAR-8 > 100 µM | PC-3 > 100 µM | RPMI-8226 > 100 µM | RXF 393 94.8 µM | SF-268 > 100 µM | SF-295 > 100 µM | SF-539 > 100 µM | SK-MEL-28 > 100 µM | SK-MEL-2 > 100 µM | SK-MEL-5 > 100 µM | SK-OV-3 > 100 µM | SN12C > 100 µM | SNB-19 > 100 µM | SNB-75 29 µM | SR > 100 µM | SW-620 > 100 µM | TK-10 > 100 µM | U-251 > 100 µM | UACC-257 > 100 µM | UACC-62 > 100 µM | UO-31 92 µM
> 100 µM: HCT-15

CN(C)c1ccc(/C=C/c2ccc(S(N)(=O)=O)cc2)cc1
inactive: 786-0 16.9 µM | A498 17.7 µM | COLO 205 24.5 µM | DU-145 13.6 µM | EKVX 21.8 µM | HCC 2998 34 µM | HCT-116 23.1 µM | HOP-62 18.7 µM | M14 15.8 µM | MCF7 13.4 µM | MDA-MB-231 13.5 µM | MDA-N 11.8 µM | Malme-3M 14 µM | NCI-H460 14.9 µM | NCI/ADR-RES 14.8 µM | OVCAR-3 20.4 µM | OVCAR-5 18 µM | PC-3 14.8 µM | RXF 393 20.7 µM | SF-295 24.3 µM | SK-MEL-28 11.5 µM | SK-MEL-2 28.2 µM | SK-MEL-5 11.3 µM | SK-OV-3 17 µM | SN12C 20.4 µM | SNB-19 20.2 µM | SNB-75 22.7 µM | SW-620 11.1 µM | T47D 27 µM | TK-10 20.5 µM | UACC-257 46.5 µM | UO-31 17.7 µM

Cc1ccc(S(=O)(=O)OC2C(O)C(O)OC2C(c2cc(O)c3c(c2O)C(=O)c2ccccc2C3=O)c2cc(O)c3c(c2O)C(=O)c2ccccc2C3=O)cc1 (stereo unspecified)
inactive: 786-0 4.94 µM | A549 3.54 µM | CAKI-1 2.74 µM | CCRF-CEM 3.89 µM | COLO 205 2.2 µM | DU-145 5.58 µM | EKVX 3.33 µM | HCC 2998 4.09 µM | HL-60 1.87 µM | HOP-62 4.11 µM | HT-29 5.24 µM | IGROV-1 7.1 µM | K562 3.24 µM | KM12 3.42 µM | M14 2.74 µM | MCF7 3.44 µM | MDA-MB-231 4.06 µM | MDA-N 3.61 µM | MOLT-4 3.31 µM | Malme-3M 1.28 µM | NCI-H23 2.99 µM | OVCAR-8 3.44 µM | PC-3 2.9 µM | RPMI-8226 2.64 µM | RXF 393 5.36 µM | SF-295 3.76 µM | SK-MEL-28 7.26 µM | SK-MEL-5 3.43 µM | SK-OV-3 6.25 µM | SN12C 3.65 µM | SNB-75 4.09 µM | SR 3.08 µM | SW-620 4.65 µM | T47D 5.07 µM | TK-10 8.71 µM | UACC-257 3.01 µM | UACC-62 4.38 µM
3.4 µM: HCT-15
